PubChem BioAssay AID1259408 (Genetic Toxicology Data Bank (GENE-TOX), 2018)
Active and inactive are the calls of the source. The rule behind the calls is not given here.

Tested on: GENE-TOX genotoxicity assays, various organisms and cells
Test: GENE-TOX mutagenicity studies
[1] = Species/Cell Type: Salmonella typhimurium (one or more of the five standard strains: TA98, TA100, TA1535, TA1537, and TA1538), Assay Type: Histidine reverse gene mutation, Ames assay, Assay Code: SAL+, Evaluation Type: Evaluation A (Pre-1980)
[2] = Species/Cell Type: Salmonella typhimurium (one or more of the five standard strains: TA98, TA100, TA1535, TA1537, and TA1538), Assay Type: Histidine reverse gene mutation, Ames assay, Assay Code: SAL-, Evaluation Type: Evaluation A (Pre-1980)

`CC1CN(/N=C/c2ccc([N+](=O)[O-])o2)C(=O)N1` (configuration not stated) was tested, and the mutagenic call [1] was “active; positive”.
With `Brc1ccccc1` the mutagenic call (Species/Cell Type: Escherichia coli polA (W3119 vs P3478), Assay Type: Rec-assay, DNA effects (bacterial DNA repair), Assay Code: RE1T, Evaluation Type: Evaluation A (Pre-1980)) was “no conclusion”, the mutagenic call (Species/Cell Type: Mammalian polychromatic erythrocytes, Assay Type: Micronucleus test, chromosome aberrations, Assay Code: MNT+, Evaluation Type: Evaluation B (Post-1980)) was “active; positive” and the mutagenic call (Species/Cell Type: Saccharomyces cerevisiae, Assay Type: Mitotic recombination or gene conversion, Assay Code: YEH-, Evaluation Type: Evaluation A (Pre-1980)) was “inactive; negative”. The mutagenic call [2] was “inactive; negative”, the mutagenic call (Species/Cell Type: Salmonella typhimurium, Assay Type: Forward and reverse gene mutation, host-mediated assay, Assay Code: HMA-, Evaluation Type: Evaluation A (Pre-1980)) was “inactive; negative” and the mutagenic call (Species/Cell Type: Syrian hamster embryo (SHE) cells, Assay Type: Cell transformation, clonal assay, Assay Code: CTC-, Evaluation Type: Evaluation A (Pre-1980)) was “inactive; negative”.
With `O=C1C(c2[nH]c3ccc(S(=O)(=O)O)cc3c2O)=Nc2ccc(S(=O)(=O)O)cc21` the mutagenic call (Species/Cell Type: Bacillus subtilis (H17 vs M45), Assay Type: Rec-assay, spot test, DNA effects (bacterial DNA repair), Assay Code: REWT, Evaluation Type: Evaluation A (Pre-1980)) was “no conclusion”, the mutagenic call (Species/Cell Type: Bacillus subtilis (H17 vs M45T), Assay Type: Rec-assay, spot test, DNA effects (bacterial DNA repair), Assay Code: REXT, Evaluation Type: Evaluation A (Pre-1980)) was “no conclusion” and the mutagenic call (Species/Cell Type: Saccharomyces cerevisiae, Assay Type: Mitotic recombination or gene conversion, Assay Code: YEC-, Evaluation Type: Evaluation A (Pre-1980)) was “inactive; negative”. The mutagenic call [2] was “inactive; negative”.
With `O=NN1CCC(Br)C(Br)C1` (configuration not stated) the mutagenic call (Species/Cell Type: Drosophila melanogaster, Assay Type: Sex-linked recessive lethal gene mutation, Assay Code: SRL+, Evaluation Type: Evaluation A (Pre-1980)) was “active; positive” and the mutagenic call [1] was “active; positive”.
For `Nc1ccc(N=Nc2ccccc2)c(N)n1`, the call (Species/Cell Type: Nonhuman, Assay Type: In vivo carcinogenicity studies, Assay Code: CCG+, Evaluation Type: Evaluation A (Pre-1980)) was “active; positive”.
For `ONC1CCCCC1`, the mutagenic call (Species/Cell Type: Drosophila melanogaster, Assay Type: Sex-linked recessive lethal gene mutation, Assay Code: SRLT, Evaluation Type: Evaluation A (Pre-1980)) was “no conclusion”, the mutagenic call (Species/Cell Type: Drosophila melanogaster, Sex: Male, Assay Type: Heritable translocation test, chromosome aberrations, Assay Code: DHTT, Evaluation Type: Evaluation A (Pre-1980)) was “no conclusion” and the mutagenic call (Species/Cell Type: Human lymphocytes or leukocytes, Assay Type: Chromosome aberrations in vitro, Assay Code: CY7-, Evaluation Type: Evaluation A (Pre-1980)) was “inactive; negative”.
